Values of other authors, collected in patent US8410057B2, “Method of inducing T cell apoptosis by administering Altered Peptide Ligand” (Centro de Ingenieria Genetica y Biotecnologia, priority 2008, dated 2013).

Test system: monocytes and activated lamina propria T cells
Conditions: Crohn's disease patients; Van den Brande et al. 2003

| Substance | induction of apoptosis |
| --- | --- |
| Etanercept | does not induce cell apoptosis |
| infliximab: chimeric monoclonal antibody that binds to and neutralizes free and bound TNFα | induce apoptosis of monocytes and activated lamina propria T cells |
